The nature of this data set: Acute toxicity: hemograms and serum biochemistry. Format: in vivo, Balb/c mice. Particulars: 2.5 mg kg^−1 of drug content three times a week.

Regarding `COc1cccc2c1C(=O)c1c(O)c3c(c(O)c1C2=O)C[C@@](O)(/C(CO)=N/NC(=O)CCCCCN1C(=O)C=CC1=O)C[C@@H]3O[C@H]1C[C@H](N)[C@H](O)[C@H](C)O1` [aldox, aldoxorubicin], the “serum creatine kinase (CK) level” value was “increased CK level”.
